Measurements as given in ChEMBL document CHEMBL1255387, “Mechanism of hepatitis C virus RNA polymerase inhibition with dihydroxypyrimidines” (Antimicrob Agents Chemother, 2010).

Tests used:
[1] = target: T1, RNA-directed RNA polymerase (Hepacivirus hominis, UniProt O39930); test: Displacement of 0.1 uM UTP from NS5B in Hepatitis C virus
[2] = target: T1, RNA-directed RNA polymerase; test: Displacement of 50 uM PPi from NS5B in Hepatitis C virus
[3] = target: T1, RNA-directed RNA polymerase; test: Displacement of 1 uM UTP from NS5B in Hepatitis C virus
[4] = target: T1, RNA-directed RNA polymerase; test: Displacement of 5 uM UTP from NS5B in Hepatitis C virus
[5] = target: T1, RNA-directed RNA polymerase; test: Displacement of 500 uM PPi from NS5B in Hepatitis C virus
[6] = target: RNA-directed RNA polymerase (Hepacivirus hominis, UniProt O39930, G152E); test: Inhibition of NS5B G152E mutant-mediated RNA synthesis in Hepatitis C virus as decrease in formation of full-length product after 45 mins
[7] = target: T1, RNA-directed RNA polymerase; test: Displacement of 100 uM PPi from NS5B in Hepatitis C virus
[8] = target: T1, RNA-directed RNA polymerase; test: Inhibition of NS5B-mediated RNA synthesis in Hepatitis C virus assessed as decrease in formation of full-length product after 45 mins
[9] = target: RNA-directed RNA polymerase (Hepacivirus hominis, UniProt O39930, P156L); test: Inhibition of NS5B P156L mutant-mediated RNA synthesis in Hepatitis C virus as decrease in formation of full-length product after 45 mins
RNA-directed RNA polymerase (Hepacivirus hominis, UniProt O39930, P156L), sequence (O39930 entry or part of it P156L): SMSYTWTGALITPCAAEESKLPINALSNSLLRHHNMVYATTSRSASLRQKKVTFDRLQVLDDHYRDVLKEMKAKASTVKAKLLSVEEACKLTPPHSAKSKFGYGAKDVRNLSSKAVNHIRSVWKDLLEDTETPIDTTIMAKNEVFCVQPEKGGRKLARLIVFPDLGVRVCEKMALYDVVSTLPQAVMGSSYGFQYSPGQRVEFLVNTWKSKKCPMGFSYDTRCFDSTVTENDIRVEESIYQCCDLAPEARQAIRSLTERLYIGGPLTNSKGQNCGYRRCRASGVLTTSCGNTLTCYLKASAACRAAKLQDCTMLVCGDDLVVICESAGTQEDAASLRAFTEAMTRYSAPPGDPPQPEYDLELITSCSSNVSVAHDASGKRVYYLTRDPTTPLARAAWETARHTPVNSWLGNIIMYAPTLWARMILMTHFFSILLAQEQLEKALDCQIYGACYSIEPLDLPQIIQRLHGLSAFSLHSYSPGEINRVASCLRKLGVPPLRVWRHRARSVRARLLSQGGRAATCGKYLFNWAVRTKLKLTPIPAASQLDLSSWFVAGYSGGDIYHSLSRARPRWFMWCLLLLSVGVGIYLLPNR

T1 sequence (O39930 whole entry): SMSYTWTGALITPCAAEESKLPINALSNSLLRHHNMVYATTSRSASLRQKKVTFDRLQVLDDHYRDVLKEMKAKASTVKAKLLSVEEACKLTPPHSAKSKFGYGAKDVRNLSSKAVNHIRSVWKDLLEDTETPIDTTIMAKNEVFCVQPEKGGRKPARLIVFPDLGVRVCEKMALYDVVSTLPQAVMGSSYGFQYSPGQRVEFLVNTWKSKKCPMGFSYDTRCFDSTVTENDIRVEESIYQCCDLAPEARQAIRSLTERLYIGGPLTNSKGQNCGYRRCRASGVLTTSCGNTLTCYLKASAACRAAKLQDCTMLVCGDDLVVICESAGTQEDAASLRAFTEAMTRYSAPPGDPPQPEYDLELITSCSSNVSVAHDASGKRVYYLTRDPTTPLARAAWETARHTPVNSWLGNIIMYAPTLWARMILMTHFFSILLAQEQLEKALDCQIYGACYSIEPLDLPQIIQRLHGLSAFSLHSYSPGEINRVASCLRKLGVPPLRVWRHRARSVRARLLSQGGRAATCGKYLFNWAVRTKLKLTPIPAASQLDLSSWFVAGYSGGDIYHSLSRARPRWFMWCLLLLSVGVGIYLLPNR
RNA-directed RNA polymerase (Hepacivirus hominis, UniProt O39930, G152E), sequence (O39930 entry or part of it G152E): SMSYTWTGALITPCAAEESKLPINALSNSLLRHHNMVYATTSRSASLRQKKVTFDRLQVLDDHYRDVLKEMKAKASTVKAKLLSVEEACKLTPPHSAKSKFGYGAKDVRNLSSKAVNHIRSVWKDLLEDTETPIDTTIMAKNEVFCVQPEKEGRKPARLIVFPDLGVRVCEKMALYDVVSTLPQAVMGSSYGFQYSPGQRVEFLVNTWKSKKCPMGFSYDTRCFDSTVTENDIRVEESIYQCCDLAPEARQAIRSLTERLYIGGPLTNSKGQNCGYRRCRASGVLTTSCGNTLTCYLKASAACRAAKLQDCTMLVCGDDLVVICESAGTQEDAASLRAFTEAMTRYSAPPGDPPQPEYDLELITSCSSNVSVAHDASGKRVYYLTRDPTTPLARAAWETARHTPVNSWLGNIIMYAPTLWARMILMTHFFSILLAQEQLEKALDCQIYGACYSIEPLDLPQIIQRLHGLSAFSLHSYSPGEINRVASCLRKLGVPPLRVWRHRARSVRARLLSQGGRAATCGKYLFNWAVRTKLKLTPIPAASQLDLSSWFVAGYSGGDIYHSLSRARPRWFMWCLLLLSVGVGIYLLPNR

Work on `O=C(Nc1ccsc1-c1nc(O)c(O)c(C(=O)O)n1)OCc1c(Cl)cccc1Cl` yielded an IC50 [1] of 258 nM, an IC50 [2] of 174 nM and an IC50 [3] of over 500 nM. It also gave an IC50 [4] of over 1000 nM, an IC50 [5] of 882 nM and an IC50 [6] of 3780 nM. For the same molecule, the IC50 [7] was 302 nM, the IC50 [8] was 730 nM and the IC50 [9] was 5390 nM.
